Key:
SK-BR-3 = test: Antiproliferative activity against human SK-BR-3 cells assessed as inhibition of cell growth incubated for 48 hrs by MTT assay; type: functional, cell-based; settings: SK-BR-3, 48 h
HepG2 [1] = test: Antiproliferative activity against human HepG2 cells assessed as inhibition of cell growth incubated for 48 hrs by MTT assay; type: functional, cell-based; settings: HepG2, 48 h
HepG2 [2] = test: Potency index, ratio of vincristine IC50 to test compound IC50 for antiproliferative activity against human HepG2 cells assessed as inhibition of cell growth incubated for 48 hrs by MTT assay; type: functional
786-0 = test: Antiproliferative activity against human 786-0 cells assessed as inhibition of cell growth incubated for 48 hrs by MTT assay; type: functional, cell-based; settings: 786-0, 48 h
SK-OV-3 = test: Antiproliferative activity against human SK-OV-3 cells assessed as inhibition of cell growth incubated for 48 hrs by MTT assay; type: functional, cell-based; settings: SK-OV-3, 48 h
HEK-293T = test: Antiproliferative activity against HEK293T cells assessed as inhibition of cell growth incubated for 48 hrs by MTT assay; type: functional, cell-based; settings: Homo sapiens
[3] = Selectivity index, ratio of IC50 for antiproliferative activity against HEK293T cells to IC50 for antiproliferative activity against human HepG2 cells; type: toxicity, cell-based; settings: HEK293T cells versus HepG2 cells, read-out: Ratio IC50
Calu-1 = test: Antiproliferative activity against human Calu-1 cells assessed as inhibition of cell growth incubated for 48 hrs by MTT assay; type: functional, cell-based; settings: Calu-1, 48 h
HepG2 [4] = test: Antiproliferative activity against human HepG2 cells assessed as inhibition of cell growth by MTT assay; type: functional, cell-based
SH-SY5Y = test: Antiproliferative activity against human SH-SY5Y cells assessed as inhibition of cell growth incubated for 72 hrs by MTT assay; type: functional, cell-based
A549 [5] = test: Antiproliferative activity against human A549 cells assessed as inhibition of cell growth incubated for 72 hrs by MTT assay; type: functional, cell-based; settings: A549, 72 h
[6] = Cytotoxicity against human L02 cells assessed as inhibition of cell growth incubated for 72 hrs by MTT assay; type: toxicity, cell-based
U-87 MG = test: Antiproliferative activity against human U-87 MG cells assessed as inhibition of cell growth incubated for 72 hrs by MTT assay; type: functional, cell-based, U-87MG ATCC
MCF7 = test: Antiproliferative activity against human MCF7 cells assessed as inhibition of cell growth incubated for 72 hrs by MTT assay; type: functional, cell-based; settings: MCF7, 72 h
PC-12 = test: Antiproliferative activity against PC-12 cells assessed as inhibition of cell growth incubated for 72 hrs by MTT assay; type: functional, cell-based; settings: Rattus norvegicus, PC-12, 72 h
HCT-116 = test: Antiproliferative activity against human HCT-116 cells assessed as inhibition of cell growth incubated for 72 hrs by MTT assay; type: functional, cell-based; settings: HCT-116, 72 h
U-118-MG = test: Antiproliferative activity against human U-118-MG cells assessed as inhibition of cell growth incubated for 72 hrs by MTT assay; type: functional, cell-based
RPMI-7951 = test: Antiproliferative activity against human RPMI-7951 cells assessed as inhibition of cell growth incubated for 24 hrs by MTT assay; type: functional, cell-based; settings: RPMI-7951, 24 h
MDA-MB-231 [7] = test: Antiproliferative activity against human MDA-MB-231 cells assessed as inhibition of cell growth incubated for 96 hrs by MTT assay; type: functional, cell-based; settings: MDA-MB-231, 96 h
HT-29 [8] = test: Antiproliferative activity against human HT-29 cells assessed as inhibition of cell growth incubated for 96 hrs by MTT assay; type: functional, cell-based; settings: HT-29, 96 h
HT-29 [9] = test: Antiproliferative activity against human HT-29 cells overexpressing carbonic anhydrase IX assessed as inhibition of cell growth incubated for 96 hrs under hypoxic condition by MTT assay; type: functional, cell-based; settings: HT-29, 96 h
[10] = Cytotoxicity against human MCF-10A cells assessed as inhibition of cell growth incubated for 96 hrs by MTT assay; type: toxicity, cell-based
HT-29 [11] = test: Antiproliferative activity against human HT-29 cells assessed as inhibition of cell growth incubated for 72 hrs by MTT assay; type: functional, cell-based; settings: HT-29, 72 h
NCI-H460 = test: Antiproliferative activity against human NCI-H460 cells assessed as inhibition of cell growth incubated for 72 hrs by MTT assay; type: functional, cell-based; settings: NCI-H460, 72 h
HeLa = test: Antiproliferative activity against human HeLa cells assessed as inhibition of cell growth incubated for 72 hrs by MTT assay; type: functional, cell-based
MDA-MB-231 [12] = test: Antiproliferative activity against human MDA-MB-231 cells assessed as inhibition of cell growth incubated for 72 hrs by MTT assay; type: functional, cell-based; settings: MDA-MB-231, 72 h
SK-MEL3 = test: Antiproliferative activity against human SK-MEL3 cells assessed as inhibition of cell growth incubated for 24 hrs by MTT assay; type: functional, cell-based; settings: SK-MEL3, 24 h
A549 [13] = test: Antitumor activity against human A549 cells xenografted in nude mouse assessed as tumor growth inhibition rate relative to control; type: functional
A549 [14] = test: Antiproliferative activity against human A549 cells assessed as inhibition of cell growth incubated for 96 hrs by MTT assay; type: functional, cell-based; settings: A549, 96 h
[15] = Antiproliferative activity against mouse Lewis lung carcinoma cell line assessed as inhibition of cell growth incubated for 48 hrs by MTT assay; type: functional, cell-based

Structure (SMILES): C[C@H]1[C@H](N2CCN(P(=O)(OCc3cncs3)N(CCCCl)CCCCl)CC2)O[C@@H]2O[C@@]3(C)CC[C@H]4[C@H](C)CC[C@@H]1[C@@]24OO3 (some centres not stated)
- IC50 (SK-BR-3): 12500 nM
- IC50 (HepG2 [1]): 12500 nM
- Ratio IC50 (HepG2 [2]): 7.4
- IC50 (786-0): 12500 nM
- IC50 (SK-OV-3): 12500 nM
- IC50 (HEK-293T): 12500 nM
- selectivity ratio [3]: 16
- IC50 (Calu-1): 12500 nM

Structure (SMILES): CCCCCCCCCCCCOC(=O)C[C@H]1O[C@@H]2O[C@@]3(C)CC[C@H]4[C@H](C)CC[C@@H]([C@H]1C)[C@@]24OO3
- IC50 (HepG2 [4]): 720 nM

Structure (SMILES): C[C@@H]1CC[C@H]2[C@@H](C)C(N3CCN(C(=O)Oc4ccc(SC(F)(F)F)cc4)CC3)O[C@@H]3O[C@@]4(C)CC[C@@H]1[C@]32OO4 (some centres not stated)
- IC50 (SH-SY5Y): ≥ 120 nM
- IC50 (A549 [5]): ≥ 120 nM
- IC50 at 72 h [6]: 12500 nM
- IC50 (U-87 MG): ≥ 120 nM
- IC50 (MCF7): ≥ 120 nM
- IC50 (PC-12): ≥ 120 nM
- IC50 (HCT-116): 120 nM
- IC50 (U-118-MG): ≥ 120 nM

Structure (SMILES): CCCCCCCCNC(=O)C[C@H]1O[C@@H]2O[C@@]3(C)CC[C@H]4[C@H](C)CC[C@@H]([C@H]1C)[C@@]24OO3
- IC50 (HepG2 [4]): 9500 nM

Structure (SMILES): C[C@H]1[C@H](OC(=O)CCC(=O)NCCc2ccc(OC(=O)CCC(=O)O[C@@H]3O[C@@H]4O[C@@]5(C)CC[C@H]6[C@H](C)CC[C@@H]([C@H]3C)[C@@]46OO5)cc2)O[C@@H]2O[C@@]3(C)CC[C@H]4[C@H](C)CC[C@@H]1[C@@]24OO3
- IC50 (RPMI-7951): 2450 nM

Structure (SMILES): C[C@H]1[C@@H](OCCc2cn(-c3ccc(S(N)(=O)=O)cc3)nn2)O[C@@H]2O[C@@]3(C)CC[C@H]4[C@H](C)CC[C@@H]1[C@@]24OO3
- IC50 (MDA-MB-231 [7]): 1920 nM
- IC50 (HT-29 [8]): 1920 nM
- IC50 (HT-29 [9]): 650 nM
- IC50 at 96 h [10]: 78000 nM

Structure (SMILES): COc1ccc(OC)c(/C=C/C(=O)c2ccc(OCC(=O)N[C@@H]3O[C@@H]4O[C@@]5(C)CC[C@H]6[C@H](C)CC[C@@H]([C@H]3C)[C@@]46OO5)cc2)c1
- IC50 (HT-29 [11]): 190 nM
- IC50 (NCI-H460): 190 nM
- IC50 (HeLa): 190 nM
- IC50 (MDA-MB-231 [12]): 190 nM

Structure (SMILES): CCCCCCCCCCCCC(=O)C[C@H]1O[C@@H]2O[C@@]3(C)CC[C@H]4[C@H](C)CC[C@@H]([C@H]1C)[C@@]24OO3
- IC50 (HepG2 [4]): 1400 nM

Structure (SMILES): COc1cc(/C=C\C(=O)CC(=O)/C=C\c2ccc(OC(=O)O[C@@H]3O[C@@H]4O[C@@]5(C)CC[C@H]6[C@H](C)CC[C@@H]([C@H]3C)[C@@]46OO5)c(OC)c2)ccc1OC(=O)CCC(=O)O[C@@H]1O[C@@H]2O[C@@]3(C)CC[C@H]4[C@H](C)CC[C@@H]([C@H]1C)[C@@]24OO3
- IC50 (SK-MEL3): 3000 nM

Structure (SMILES): COc1ccc(OC)c(/C=C/C(=O)c2ccc(OCC(=O)N[C@H]3O[C@@H]4O[C@@]5(C)CC[C@H]6[C@H](C)CC[C@@H]([C@H]3C)[C@@]46OO5)cc2)c1
- IC50 (HT-29 [11]): 120 nM
- IC50 (NCI-H460): 120 nM
- IC50 (HeLa): 120 nM
- IC50 (MDA-MB-231 [12]): 120 nM

Structure (SMILES): C[C@@H]1CC[C@H]2[C@@H](C)C(=O)O[C@@H]3O[C@@]4(C)CC[C@@H]1[C@]32OO4 [ARTEMISININ]
- IC50 (HepG2 [4]): 97000 nM

Structure (SMILES): C[C@H]1[C@@H](O)O[C@@H]2O[C@@]3(C)CC[C@H]4[C@H](C)CC[C@@H]1[C@@]24OO3 [ARTENIMOL]
- inhibition (INH) (A549 [13]): 54.3%
- IC50 (A549 [14]): 230 nM
- IC50 [15]: 53100 nM
